Biological target: T1, P2X3 (UniProt P56373)
T1 sequence (P56373 1-397): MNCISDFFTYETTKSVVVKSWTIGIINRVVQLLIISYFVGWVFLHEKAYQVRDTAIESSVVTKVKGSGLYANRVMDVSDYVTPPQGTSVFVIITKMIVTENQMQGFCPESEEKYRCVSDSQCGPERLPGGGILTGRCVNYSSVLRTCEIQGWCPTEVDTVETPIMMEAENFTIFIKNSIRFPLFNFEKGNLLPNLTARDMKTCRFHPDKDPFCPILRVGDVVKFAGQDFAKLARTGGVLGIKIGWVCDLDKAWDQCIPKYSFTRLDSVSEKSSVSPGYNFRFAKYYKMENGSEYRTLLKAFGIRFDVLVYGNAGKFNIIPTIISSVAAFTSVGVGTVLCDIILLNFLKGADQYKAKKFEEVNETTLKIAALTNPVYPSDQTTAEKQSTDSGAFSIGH
Experiment: P2X3 FLIPR intracellular calcium assay
Assay type: cell-based
Conditions: agonist at EC75, species (human or rat) not given
Method in brief: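 Human P2X3-HEK, human P2X2/3-TRex293, rat P2X2/3-TRex293 or rat P2X3 TRex-CHO cells loaded with Calcium 4 dye (1.8 mM probenecid, pH 7.4).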

| IC50 [nM] | SMILES |
| --- | --- |
| 1 to 100 | C[C@H](NC(=O)c1cc(-n2nncc2C(F)F)c2ncc(-c3ccc(Cl)s3)n2c1)c1nnc[nH]1 [Example 38] |
| 1 to 100 | CC[C@H](NC(=O)c1cc(-n2nncc2C(F)F)c2ncc(-c3ccc(C)s3)n2c1)c1nnc[nH]1 [Example 52] |
| 1 to 100 | CCc1cnnn1-c1cc(C(=O)NCc2ccc(C)nc2)cn2c(-c3ccc(C)s3)cnc12 [Example 22] |

Source: patent US10316039B2, “P2X3 and/or P2X2/3 compounds and methods” (Asana Biosciences, LLC, priority 2013, dated 2019)
